Experimental data taken from US5140047A, “Lipoxygenase inhibitors” (SmithKline Beecham Corporation, priority 1991, dated 1992).
Read-outs that look alike come from different tables or passages of the source. One block for each molecule: values may come before it.

What was measured:
rheumatoid arthritis = conditions: preliminary observation, Neumann et al. 1983; cited from earlier work
[1] = system: LTB4 and 5-HETE production; conditions: Stenson et al. 1982; cited from earlier work
[2] = system: human monocyte LTB4 production; assay: LTB4 production from human monocytes in vitro (A23187 stimulated, RIA); format: cell-based
Experimental: (§1) Human monocytes were prepared from leukosource packs supplied by the American Red Cross. The leukosource packs were fractionated by a two-step procedure described by F. Colatta et al. (J. Immunology 132: 936, 1984) that uses sedimentation on Ficoll followed by sedimentation on Percoll. The monocyte fraction that results from this technique was composed of 80-90% monocytes with the remainder being neutrophils and lymphocytes. In addition, significant number of platelets are present.
(§2) The monocytes (10^6 cells) were placed into polypropylene tubes and used as a suspended culture. The assay buffer consisted of RPMI 1640 buffer, 2 mM glutamine, 2.5 mM HEPES and 2 mM CaCl2 (total volume 0.475 ml). Compounds (0.005 ml) were added in DMSO, and the cells were preincubated for 10 minutes at 37° C. with constant agitation. A23187 (2 uM) was used to stimulate the cells. After an additional 10 minutes, the buffer was collected by centrifugation (2500×g for 15 minutes), and stored at -70° C. until assayed. LTB4 production was measured by radioimmunassay which was performed according to the manufacturer's (Advanced Magnetics, Boston, Mass.) instructions. PGE2 was determined using an RIA kit supplied by New England Nuclear (Boston, Mass.).

[3] = system: human monocyte PGE2 production (cyclooxygenase activity); assay: PGE2 production from human monocytes in vitro (A23187 stimulated, RIA); format: cell-based; conditions: for IC50: Homo sapiens, Monocyte
Experimental: as §1, §2

[4] = system: 5-LO activity (LTB4) in mouse whole blood; assay: Ex vivo mouse blood eicosanoid assay (LTB4, A23187 stimulated); format: in vivo, mouse (CD1); conditions: po, per os; for inhibition at 10 mg/kg: read-out: ex vivo, % inh., heading: ex vivo, % inh., 30 min pre-treatment, mouse whole blood, A23187 60 uM
Experimental: In experiments when mice were used they were CD1 mice obtained from Charles River Breeding Laboratories, and within a single experiment the mice were age-matched. Their weight range was from 25 to 42 g. The test groups generally contained 3-6 animals.
Mice were pre-treated per os with vehicle or a test compound (dissolved in dimethylacetamide and diluted 1 to 10 with sesame oil) 30 minutes prior to removal of blood. The 5-lipoxygenase product LTB4, was extracted from whole blood following A23187 stimulation. Aliquots of pooled heparinized mouse blood (1 ml each aliquot) from male CD1 mice (Charles River) were placed into 4 ml polypropylene tubes. The tubes were preincubated for about five minutes at 37° C. A23187 (60 uM) was added to stimulate eicosanoid production. Several aliquots of blood were not stimulated and, thus, provided background levels for eicosanoid production. All tubes were incubated for about 30 minutes at 37° C. The blood samples were centrifuged at 400×g for about 15 minutes, and the plasma recovered for extraction. One volume of chilled acetonitrile was added to all at 5° C. The supernatants were recovered and diluted with 1% formic acid: 1% triethylamine to achieve a final concentration of 20% acetonitrile. These supernatants were then loaded onto the extraction cartridge that had been conditioned according to the Manufacturer's instructions (Solid Phase Extraction Columns, J. T. Baker, C18 3 ml size). The samples were washed with 3 ml of 1% formic acid: 1% triethylamine, air dried, and then washed with 3 ml of petroleum ether. After air drying again, the samples were eluted with methyl formate. The eluents were concentrated under vacuum. The concentrates were resuspended in 30% acetonitrile buffered with 50 mM ammonium acetate ([…]). The recovery of LTB4 was 60%. The 300 ul concentrates were assayed by radioreceptor assay for LTB4 by labortatory protocol.
Mean values for groups were calculated and percent inhibition was determined between the vehicle control mean and test group. […]

[5] = molecular target: T1, 5-lipoxygenase (5-LO) isolated from extracts of RBL-1 cells (Rattus norvegicus, UniProt P12527); assay: 5-LO activity, RBL-1 supernatant, oxygen consumption; format: biochemical; conditions: RBL-1 supernatant 5-LO enzyme; 10 uM arachidonic acid, 20° C.; read-out: 5-LO IC-50
T1 construct: isolated from extracts of RBL-1 cells; endogenous in cells; host or cells: RBL-1 cells (cell extract / supernatant)
T1 sequence (P12527 1-673): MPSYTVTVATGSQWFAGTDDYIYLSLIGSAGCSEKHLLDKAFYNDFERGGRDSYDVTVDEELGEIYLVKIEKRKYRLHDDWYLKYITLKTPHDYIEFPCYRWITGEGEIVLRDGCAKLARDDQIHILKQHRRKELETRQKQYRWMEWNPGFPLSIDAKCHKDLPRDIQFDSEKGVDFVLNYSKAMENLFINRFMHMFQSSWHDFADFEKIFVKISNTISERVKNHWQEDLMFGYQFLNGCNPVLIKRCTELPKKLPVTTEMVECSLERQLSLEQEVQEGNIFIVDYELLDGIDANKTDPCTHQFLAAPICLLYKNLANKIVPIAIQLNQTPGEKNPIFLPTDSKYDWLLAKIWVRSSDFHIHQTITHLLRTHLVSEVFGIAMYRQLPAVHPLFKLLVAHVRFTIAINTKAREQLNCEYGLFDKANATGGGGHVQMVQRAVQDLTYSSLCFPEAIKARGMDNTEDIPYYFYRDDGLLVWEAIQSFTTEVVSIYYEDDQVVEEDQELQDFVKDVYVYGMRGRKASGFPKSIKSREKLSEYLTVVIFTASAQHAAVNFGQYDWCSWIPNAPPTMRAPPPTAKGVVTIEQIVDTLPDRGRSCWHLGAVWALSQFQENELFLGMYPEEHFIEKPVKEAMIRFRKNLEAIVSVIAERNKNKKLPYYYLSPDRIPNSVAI
Experimental: The 5-lipoxygenase (5-LO) was isolated from extracts of RBL-1 cells. The assay for assessing inhibition of the 5-LO activity was a continuous assay which monitored the consumption of oxygen (O2). The cell extract (100 ug) was preincubated with the inhibitor or its vehicle in 25 mM BisTris buffer (pH 7.0) that contained 1 mM EDTA, 1 mM ATP, 150 mM NaCl and 5% ethylene glycol for 2 minutes at 20° C. (total volume 2.99 ml). Arachidonic acid (10 uM) and CaCl2 (2 mM) were added to start the reaction, and the decrease in O2 concentration followed with time using a Clark-type electrode and the Yellow Spring O2 monitor (type 53) (Yellow Springs, Ohio). The optimum velocity was calculated from the progress curves. All compounds were dissolved in ethanol with the final concentration of ethanol being 1% in the assay. Drug-induced effects on enzyme activities are described as the concentration of drug causing a 50% inhibition of oxygen consumption (IC50).

[6] = system: eicosanoid production in human whole blood; assay: Inhibition of eicosanoid production following calcium ionophore stimulation in human whole blood; format: cell-based; conditions: calcium ionophore 60 μM
Experimental: The eicosanoids, which include the 5-lipoxygenase product LTB4, transLTB4, 20-hydroxyLTB4, 5-HETE, and the 12-lipoxygenase product are extracted from the whole blood following A23187 calcium ionophore stimulation. The extracts are separated by reverse phase high pressure liquid chromatography and quantified by absorbance methods.
Venous human blood is collected into polypropylene tubes containing 1% heparin. The blood is then aliquoted into 4.5 ml volumes and preincubated at 37° C. for 6 minutes in polypropylene tubes (15 ml size). Compound or carrier (10 μL dimethylsulfoxide) is added 6 minutes prior to stimulation. Calcium ionophore (0.5 ml) is added, and the blood incubated for 6 minutes. Prostaglandin B2 (1 nmole) is added, and the blood extracted as described below.
The samples are centrifuged at 1000×g for 15 minutes at 5° C. The plasma is collected, and one volume of acetonitrile is added to the plasma. This suspension is then centrifuged at 1000×g for 15 minutes at 5° C. The supernatant is collected and diluted with 1.5 volumes of chilled aqueous 1% formic acid. This mixture is loaded onto a preconditioned J. T. Baker C18 SPE cartridge (Phillipsburg, N.J.) at a flow rate of 1-2 ml/minute. (The cartridge is preconditioned according to manufacture's recommendations.) The absorbed sample is washed in the following order with three (3) ml each of (i) aqueous 1% formic acid: 1% triethylamine; and (ii) petroleum ether.
The eicosanoids are eluted in 3 ml of methyl formate. The solvent is removed under vacuum. The sample is resuspended in […] of 50% acetonitrile buffered with ammonium acetate. […]
The eicosanoids in the samples are verified by their retention times and their UV absorbance spectra. The peaks are quantified with reference to the internal standard and their absorbance response at their maximum absorbance wavelength.

psoriasis = conditions: Allen et al. 1983; cited from earlier work
lipoxygenase = conditions: cited from earlier work
myocardial infarction = conditions: dogs, Mullane et al. 1984; cited from earlier work

SMILES: O=C(O)c1cc(/N=N/c2ccc(S(=O)(=O)Nc3ccccn3)cc2)ccc1O [Sulfasalazine]
- efficacy in rheumatoid arthritic patients (rheumatoid arthritis): efficacy, including remission
- inhibition of LTB4 and 5-HETE production in vitro [1]: inhibit LTB4 and 5-HETE production in vitro

SMILES: CC(C(=O)O)c1ccc2oc(-c3ccc(Cl)cc3)nc2c1 (stereo not shown) [benoxaprofen]
- effect on psoriasis (psoriasis): promising effect
- in vitro lipoxygenase inhibitory activity (lipoxygenase): in vitro lipoxygenase inhibitory activity

SMILES: NC1=NN(c2cccc(C(F)(F)F)c2)CC1 [BW755-C]
- area of infarction following coronary occlusion (myocardial infarction): reduced

The next lines start with results.

- IC50 ([2]; A23187 2 uM, Table 1, read-out: human monocyte-IC50, LTB4): 1.6 µM
- IC50 ([2]; read-out: IC50, production of LTB4 in the human monocyte): 1.6 µM
- IC50 ([3]; A23187 2 uM, Table 1, read-out: human monocyte-IC50, PGE2): > 30 µM
- IC50 ([3]; read-out: IC50, production of the prostaglandin PGE2 (human monocyte)): > 30 µM
- cyclooxygenase activity as indicated by production of PGE2 ([3]; result in words): did not inhibit cyclooxygenase activity
- IC50 [5]: 4.2 µM
- IC50 [6]: > 10 µM
SMILES: NC(=O)N(O)C1CCCc2c1ccc1ccccc21 (stereo not shown) [Example 1, N-1-(1,2,3,4-Tetrahydrophenanthrenyl)-N-hydroxyurea]
- ED50 ([4]; 0.5 h, mouse whole blood ex vivo, A23187, linear regression, read-out: ED50 (inhibition of 5-LO activity ex vivo)): 2.5 mg/kg
- inhibition at 10 mg/kg [4]: 86%

- IC50 [5]: 5.6 µM
- IC50 [6]: > 10 µM
SMILES: NC(=O)N(O)C1COc2c1ccc1ccccc21 (stereo not shown) [Example 2]
- inhibition at 10 mg/kg [4]: 92%

- IC50 [5]: 8 µM
- IC50 [6]: > 10 µM
SMILES: NC(=O)N(O)C1COc2ccc3ccccc3c21 (stereo not shown) [Example 3]
